Measurements reported in patent US20240174641A1, “HETEROCYCLIC COMPOUNDS CAPABLE OF […]” (Boehringer Ingelheim International GmbH, priority 2022, published 2024).

Tests used:
STING = STING (Canis lupus familiaris, UniProt A0A8I3MH52); assay: Dog whole blood (dWB) assay, IFNb secretion by ELISA; assay type: cell-based; conditions: canine Interferon-beta (IFNb) ELISA, 4 h incubation at 37° C.
Procedure: For the detection of STING activation in physiological environment dog whole blood (dWB) was stimulated by the cyclic dinucleotide cGAMP or a test compound. Pathway activity was monitored by measuring the IFNb production.
Compounds were delivered as 10 mM DMSO solution, diluted and transferred by using an Echo acoustic dispenser to the 384 well assay plate (Greiner #781182), pre-filled with 10 μl 1×HBSS in each well (10×HBSS (+Ca/+Mg), #14065-049, Gibco). Typically, 8 concentrations were used with the highest concentration at 10 μM in the final assay volume followed by approximately 1:4 dilution steps. DMSO concentration was set to 0.1% in the final assay volume. The 384-well assay plate contained 20 test compounds and DMSO in control and cGAMP standard wells. The dog whole blood was collected as Na-Citrate blood (e.g., 3.8% in Monovettes from Sarstedt) and kept at 4° C. overnight until use in the assay. 80 μl of the whole blood samples were transferred to each well of the 384-well assay plates filled with compound/1×HBSS. Blood plates were kept at room temperature for 60 minutes and continuous shaking with 450 rpm, covered with the lid, but not sealed. A 10×cGAMP assay solution was diluted from a 2 mM stock solution in 1×HBSS immediately before use at room temperature. 10 μl of the 10×cGAMP/HBSS were added to the high control wells, whereas HBSS only was added to all compound and low control wells. After covering assay plates with the lid, blood plates were kept for a 4 h incubation at 37° C. in the incubator, without shaking. For the detection of IFNb in dog plasma the ELISA Kit for Canine Interferon Beta (Biotrend #SEA222Ca) was used. Whole blood assay plates were centrifuged at 1000 g for 10 minutes at 8° C. […] was transferred with a 96 well pipetting robotics from the 384 well whole blood plate to the corresponding 96 well ELISA plate, pre-filled with 60 μl assay diluent in each well. Plates were sealed with microplate seals and kept at 4° C. overnight again. ELISA plates were brought to room temperature, followed by a 1 h incubation at 37° C. in the incubator. Detection Reagent A working solution was prepared by diluting Detection Reagent A 1:100 in Assay Reagent A. Liquid was then removed from the 96 well ELISA plate to add 100 μL Detection Reagent A working solution to each well. ELISA plates were covered with the plate sealer and incubated for 1 hour at 37° C. in the incubator. The 1× Wash buffer was prepared by diluting the 30× Wash Buffer Concentrate in H2O. Detection Reagent B working solution was prepared by diluting Detection Reagent B 1:100 in Assay Reagent B. The ELISA plates were washed three times with 350 μl wash buffer and afterwards inverted and blotted against absorbent paper to remove any liquid. 100 μL of Detection Reagent B working solution was added to each well of the ELISA plates, which are then covered with the plate sealer and incubated for 30 minutes at 37° C. in the incubator. After incubation the ELISA assay plates were washed five times with 350 μl wash buffer and were again inverted and blotted against absorbent paper to remove any remaining liquid. 90 μL of TMB Substrate was added to each well of the ELISA plates, which were then covered with the plate sealer and incubated for 15 minutes at 37° C. in the incubator. The reaction was stopped by adding 50 μL stop solution and absorbance was measured at 450 nm immediately.
For data evaluation and calculation, % control calculation of each well was based on the mean of high (cGAMP stimulated control) and mean of low (unstimulated control) controls by using the following standard 4 parameter logistic regression formula:
[y=(a−d)/(1+(x/c)^b)+d] • a=low value, • d=high value, • x=conc M, • c=EC50 M, • b=slope. Dog Liver Microsome (dLM) Assay

dog STING (dSTING) = assay: Dog differential scanning fluorimetry (DSF) assay, thermal shift of dog STING protein; assay type: binding; conditions: DSF (dDSF); 100 μM compound, 3 μM dog STING protein; Tm with ligand minus Tm of protein alone
Description: The protein used for the biophysical experiments was a recombinant dog STING protein comprising its cytosolic cGAMP binding ectodomain. A codon optimized DNA sequence (for expression in Escherichia coli) encoding amino acid residues 149 to 375 of dog STING was synthesized by GeneArt (Regensburg, Germany) and inserted into a pET17b E. coli expression vector. The protein construct encodes an N-terminal 8×His-tag followed by tobacco etch virus protease (TEV) cleavage site and the above STING gene sequence. The resulting protein sequence for the used dog STING protein (SEQ ID No. 1) is listed below:
For expression of the above recombinant dog STING, the construct was transformed into E. coli BL21 DE3 strain and grown in shake flasks in LB-medium at 15° C. Expression was induced by addition of isopropyl β-D-1-thiogalactopyranoside to a final concentration of 1 mM and cultures shaken overnight. Cell pellets were centrifuged and stored at −70° C. until further use. Protein was purified by cell thawing in lysis buffer (20 mM TRIS-HCl, pH 8, 500 mM NaCl, 1 mM DTT, 0.5 mg/ml lysozyme, Complete Protease Inhibitor (Roche) and DNase (Roche)), followed by metal affinity purification using Ni-NTA resins and elution buffer consisting of 20 mM TRIS-HCl, pH 8, 500 mM NaCl, 1 mM DTT, 300 mM imidazole. Cleavage of the His-Tag using TEV-protease took place during dialysis in size exclusion buffer (20 mM TRIS-HCl, pH 8, 100 mM NaCl, 1 mM DTT) over night. To further purify the target protein a reverse Nickel affinity column was used and the flow through was applied to a size exclusion chromatography. The peak fraction was collected and concentrated to 5 mg/mL.
Dye fluorescence is quenched in aqueous environment and increases upon association of the dye with the hydrophobic parts of the unfolding protein. […] The inflection point of the curve represents the “melting” temperature of the protein (Tm) which is calculated numerically using the Boltzmann equation.
The thermal stability of the dog STING protein was measured in assay buffer containing 20 mM Tris, 150 mM NaCl at pH7.5. The assay uses 384-Well qPCR Plates (Catalog #781358, BRAND), Microseal® ‘B’ Adhesive Seals for PCR Plates (Catalog #MSB-1001, BIO-RAD) and was run on a CFX384 Real-Time System (Bio-Rad). A DMSO stock solution of SYPRO orange (SIGMA 55692-500UL) was prepared. Compound stock solutions (10 mM in DMSO) were diluted 1:2 in DMSO to an intermediate compound concentration of 5 mM and then further diluted 1:40 in assay buffer resulting in a compound concentration of 125 μM and 2.5% DMSO. Fluorescent dye stock solution (5000×SYPRO Orange) was then mixed with target protein and buffer to a concentration of 15 μM Protein and 25×SYPRO Orange. 2 μl of this protein-dye-mixture was added to 8 μl compound solution. Final volume was 10 μL. 3-6 well positions were used as negative control (protein with 2% DMSO). The plates were prepared for duplicate measurement and centrifuged for 2 min at 1000 g. In the measurement, 160 cycles of 0.5° C. were used (temperature ramp 15 s/cycle, 15° C. to 95° C.).
Final Assay concentrations for compound characterization were 100 μM compound, 3 μM target protein, 5×SYPRO Orange, and 2% DMSO in 10 μl. All dispensing steps were performed using a HamiltonStar pipetting robot (Hamilton).
Dissociation curves were processed in Bio-Rad CFX Manager. Peak type was set to “negative”. Compound codes for screen were assigned in the plate layout.
Two replicates of TM measurements were averaged, and the standard deviation was calculated. In cases of SD>1.5° C. the measurement was repeated.
The melting point (Tm) obtained for STING protein alone was subtracted from T obtained for protein incubated with ligand to generate ΔTm values.

STING, sequence (A0A8I3MH52 1-374): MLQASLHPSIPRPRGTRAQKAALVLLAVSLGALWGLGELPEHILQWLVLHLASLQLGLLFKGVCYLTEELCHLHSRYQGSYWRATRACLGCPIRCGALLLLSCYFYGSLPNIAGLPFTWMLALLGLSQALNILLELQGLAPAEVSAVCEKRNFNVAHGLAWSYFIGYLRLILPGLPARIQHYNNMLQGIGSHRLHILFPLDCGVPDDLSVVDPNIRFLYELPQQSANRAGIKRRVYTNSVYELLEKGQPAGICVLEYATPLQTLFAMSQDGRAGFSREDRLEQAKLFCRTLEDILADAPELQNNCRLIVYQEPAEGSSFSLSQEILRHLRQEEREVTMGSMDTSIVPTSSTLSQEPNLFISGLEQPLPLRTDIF

Compound | EC50 (STING) [nM] | Delta TM (dog STING (dSTING)) [°C]
Cc1c(F)ccc2c(-c3c(F)ccc4nn(C)cc34)nn(-c3ccc(N4CCC(C(=O)O)CC4)nc3)c12 [Example 65, 1-(5-{5″,6-difluoro-2″,7-dimethyl-1H,2″H-[3,4″-biindazol]-1-yl}pyridin-2-yl)piperidine-4-carboxylic acid] | 330 | 36.5
Cc1cccc2c(-c3cccc4nn(C)c(F)c34)nn(-c3ccc(N4C[C@@H]5C[C@H]4C[C@H]5C(=O)O)nc3)c12 [Example 73-2, (1S,4R,5R)-2-(5-{3″-fluoro-2″,7-dimethyl-1H,2″H-[3,4″-biindazol]-1-yl}pyridin-2-yl)-2-azabicyclo[2.2.1]heptane-5-carboxylic acid] | 232 | 33.3
Cc1cccc2c(-c3c(F)cc(F)c4nn(C)c(F)c34)nn(-c3ccc(N4C[C@@H]5[C@H](C4)[C@H]5C(=O)O)nc3)c12 [Example 76, (1R,5S,6R)-3-(5-{3″,5″,7″-trifluoro-2″,7-dimethyl-1H,2″H-[3,4″- biindazol]-1-yl}pyridin-2-yl)-3-azabicyclo[3.1.0]hexane-6-carboxylic acid] | 695 | 33.0
Cc1cccc2c(-c3c(F)cc(F)c4nn(C)cc34)nn(-c3ccc(N4CCC(C(=O)O)CC4)nc3)c12 [Example 44, 1-(5-{5″,7″-difluoro-2″,7-dimethyl-1H,2″H-[3,4″-biindazol]-1-yl}pyridin-2-yl)piperidine-4-carboxylic acid] | 388 | 34.5
Cc1cccc2c(-c3c(F)ccc4nn(C)cc34)nn(-c3ccc(N4C[C@@H]5C[C@H]4C[C@H]5C(=O)O)nc3)c12 [Example 27-1, (1S,4R,5R)-2-(5-{5″-fluoro-2″,7-dimethyl-1H,2″H-[3,4″-biindazol]-1-yl}pyridin-2-yl)-2-azabicyclo[2.2.1]heptane-5-carboxylic acid] | 211 | 36.9
CC(=O)N1C[C@H]2C[C@@H]1CN2c1ccc(-n2nc(-c3c(F)ccc4nn(C)cc34)c3cccc(C)c32)cn1 [Example 31, 1-[(1R,4R)-5-(5-{5″-fluoro-2″,7-dimethyl-1H,2″H-[3,4″-biindazol]-1-yl}pyridin-2-yl)-2,5-diazabicyclo[2.2.1]heptan-2-yl]ethan-1-one] | 101 | 30.5
CC(=O)N1CCN(c2ccc(-n3nc(-c4cccc5nn(C)c(F)c45)c4cccc(C)c43)cn2)CC1 [Example 8, 1-[4-(5-{3″-Fluoro-2″,7-dimethyl-1H,2″H-[3,4″-biindazol]-1-yl}pyridin-2-yl)piperazin-1-yl]ethan-1-one] | 168 | 32.5
Cc1cccc2c(-c3c(F)ccc4nn(C)cc34)nn(-c3ccc(N4C[C@@H]5[C@H](C4)[C@H]5C(=O)O)nc3)c12 [Example 5, (1R,5S,6S)-3-(5-{5″-Fluoro-2″,7-dimethyl-1H,2″H-[3,4″-biindazol]-1-yl}pyridin-2-yl)-3-azabicyclo[3.1.0]hexane-6-carboxylic acid] | 282 | 36.5
Cc1c(F)ccc2c(-c3c(F)cc(F)c4nn(C)cc34)nn(-c3ccc(N4C[C@@H]5[C@H](C4)[C@H]5C(=O)O)nc3)c12 [Example 69, (1R,5S,6S)-3-(5-{5″,6,7″-trifluoro-2″,7-dimethyl-1H,2″H-[3,4″-biindazol]-1-yl}pyridin-2-yl)-3-azabicyclo[3.1.0]hexane-6-carboxylic acid] |  | 35.0
Cc1cccc2c(-c3c(F)ccc4nn(C)cc34)nn(-c3ccc(N4CCOC(CC(=O)O)C4)nc3)c12 [Example 26-1, 2-[(2R)-4-(5-{5″-fluoro-2″,7-dimethyl-1H,2″H-[3,4″-biindazol]-1-yl}pyridin-2-yl)morpholin-2-yl]acetic acid] |  | 31.0
Cc1cccc2c(-c3ccc(F)c4nn(C)c(F)c34)nn(-c3ccc(N4C[C@H]5C[C@@H]4C[C@@H]5C(=O)O)nc3)c12 (single isomer, unassigned) [Example 56-2] |  | 33.0
Cc1cccc2c(-c3c(F)cc(F)c4nn(C)cc34)nn(-c3ccc(N4CC5CCC4CC5C(=O)O)nc3)c12 (single isomer, unassigned) [Example 48-2] |  | 24.6
Cc1cccc2c(-c3cc(F)cc4nn(C)cc34)nn(-c3ccc(N4CC[C@H](CC(=O)O)C4)nc3)c12 [Example 36, 2-[(3R)-1-(5-{6″-fluoro-2″,7-dimethyl-1H,2″H-[3,4″-biindazol]-1-yl}pyridin-2-yl)pyrrolidin-3-yl]acetic acid] |  | 24.0
CC(=O)N1C[C@@H]2C[C@H]1CN2c1ccc(-n2nc(-c3cc(F)cc4nn(C)cc34)c3cccc(C)c32)cn1 [Example 41, 1-[(1S,4S)-5-(5-{6″-fluoro-2″,7-dimethyl-1H,2″H-[3,4″-biindazol]-1-yl}pyridin-2-yl)-2,5-diazabicyclo[2.2.1]heptan-2-yl]ethan-1-one] |  | 16.0
